Series [1] in a line: Inhibition of ST2/IL-33 (unknown origin) interaction incubated for 1 hr by AlphaLISA assay. Further details: species or system Homo sapiens.
Series [2] in a line: Metabolic stability in pooled CD-1 mouse liver microsomes assessed as half life at 1 uM incubated for 60 mins in presence of NADPH by LC-MS/MS analysis. Format: ADME, Microsome. On the technique in general: Liver microsomes are vesicles of endoplasmic reticulum, rich in cytochrome P450 enzymes.
Series [3] can be described thus: Inhibition of ST2/IL-33 (unknown origin) interaction in HEK-Blue IL-33 cells assessed as reduction in NF-kapaB activation by measuring SEAP reporter level incubated for 20 hrs by QUANTI-Blue reagent based assay. The format is cell-based. The conditions noted are these: Homo sapiens, HEK-Blue IL-33, 20 h.
Series [4] in a line: Half life in CD-1 mouse at 40 mg/kg, ip measured for 7 hrs by LC-MS/MS analysis. Format: ADME, organism-based. The conditions noted are these: in vivo.
A short description of series [5]: Metabolic stability in pooled human liver microsomes assessed as half life at 1 uM incubated for 60 mins in presence of NADPH by LC-MS/MS analysis. Format: ADME, Microsome.
Series [6] is described as follows: Cytotoxicity against HEK-Blue IL-33 cells assessed as reduction in cell viability at upto 333 uM incubated for 20 hrs by CellTiter 96 aqueous one solution cell proliferation assay. The format is toxicity, cell-based. The conditions noted are these: human, hek-blue il-33, 20 h.
Series [7] in a line: Reduction in expansion of C57BL/6 mouse tolerogenic CD4-positive […] regulatory T cells at 1 to 10 uM incubated for 7 days in presence of T cell-depleted and irradiated splenocytes from allogeneic C3H.SW mouse by mixed lymphocyte reaction assay relative to control. The format is functional. Also on record: scale not given: the % may be the effect or the level left. The conditions noted are these: dose 1-10 µM, time 7 day.

A further series concerns CD8-positive T cell. The series can be described thus: Inhibition of cell proliferation in C57BL/6 mouse spleen CD8-positive T cells at 1 to 10 uM incubated for 7 days in presence of T cell-depleted and irradiated splenocytes from allogeneic C3H.SW mouse by mixed lymphocyte reaction assay. The note with it: dose 1-10 µM, time 7.0 day. The format is functional, cell-based.

Another series concerns CD4+ve Th. The series can be described thus: Inhibition of cell proliferation in C57BL/6 mouse spleen CD4-positive T cells at 1 to 10 uM incubated for 7 days in presence of T cell-depleted and irradiated splenocytes from allogeneic C3H.SW mouse by mixed lymphocyte reaction assay. The format is functional, cell-based. The note with it: dose 1-10 µM, time 7.0 day.
A further series relates to T-cell. Nature of the series: Induction of expansion of C57BL/6 mouse tolerogenic CD4-positive […] regulatory T cells incubated for 7 days in presence of T cell-depleted and irradiated splenocytes from allogeneic C3H.SW mouse by mixed lymphocyte reaction assay. The format is functional, cell-based. The conditions noted are these: dose 1-10 µM, time 7.0 day, DDE = dose-dependent effect.

pIC50: −log10 of the molar value. The source made the active and inactive calls.

We go through 31 compounds from ChEMBL document CHEMBL5107998, “Structure-Activity relationship of 1-(Furan-2ylmethyl)Pyrrolidine-Based Stimulation-2 (ST2) inhibitors for treating graft versus host disease” (Bioorg Med Chem, 2022).

Consider `COC(=O)c1ccc(C2CCCN2Cc2ccc(-c3ccccc3[N+](=O)[O-])o2)cc1` (centres undefined), for which the pIC50 (commonly the IC50 on a negative log10 scale, so that one unit is a factor of ten) in series [1] is 4.69.
Consider `COc1ccc(C2CCCN2Cc2ccc(-c3ccccc3[N+](=O)[O-])o2)cc1` (centres undefined), for which the half-life – broadly, the time needed for the level to fall by half in the phase considered – at 1 µM in [2] was 0.73 min; in series [5], 1.1 min. Further, the negative-log IC50 (pIC50) in series [3] was 4.25; in series [1] it was 4.33. The t1/2 in [4] came to 85.8 min.
As for `COC(=O)Cc1cccc(C2CCCN2Cc2ccc(-c3ccccc3[N+](=O)[O-])o2)c1` (centres undefined), the pIC50 in [1] was 4.28.
For `Cc1cc([N+](=O)[O-])ccc1-c1ccc(CN2CCC[C@H]2c2ccc(N(C)C)cc2)o1`, the pIC50 is 4.37 in series [3] and 5.20 in [1].
The compound `O=[N+]([O-])c1ccccc1-c1ccc(CN2CCCC2c2ccccc2)o1` (centres undefined) gave a pIC50 in [1] of 4.01.
On to `Cc1ccc(-c2ccc(CN3CCCC3c3ccc(N(C)C)cc3)o2)c([N+](=O)[O-])c1` (centres undefined), for which the results for the negative logarithm of the IC50 (pIC50) in series [3] and in series [1] were 4.38 and 5.04, respectively. In addition, the Activity entry in series [6] is on record as “Non-Toxic”.
With `Cc1cc([N+](=O)[O-])ccc1-c1ccc(CN2CCC[C@@H]2c2ccc(N(C)C)cc2)o1`, the pIC50 in [3] is 4.27; in series [1], 5.09.
`O=C(O)c1ccc(C2CCCN2Cc2ccc(-c3ccccc3[N+](=O)[O-])o2)cc1` (centres undefined) had a pIC50 in series [1] of 4.09. Further, the Activity in series [7] stood at 10%.
On to `COc1ccc(-c2ccc(CN3CCCC3c3ccc(N(C)C)cc3)o2)c([N+](=O)[O-])c1` (centres undefined), for which the pIC50 in series [3] is 4.31; in series [1] it was 4.91. In addition, in [6], the Activity entry is “Non-Toxic”.
For `Cc1ccc([N+](=O)[O-])c(-c2ccc(CN3CCCC3c3ccc(N(C)C)cc3)o2)c1` (centres undefined), in [2], the half-life at 1 µM is 0.89 min. Moreover, the pIC50 in [3] is 4.41; in series [1], 5.09. The Activity entry in series [6] is given as “Non-Toxic”.
Take `COc1ccc(C2CCCN2Cc2ccc(-c3ccccc3C(N)=O)o2)cc1` (centres undefined): in series [1], the negative logarithm of the IC50 (pIC50) is 3.78.
As for `COc1ccc(-c2ccc(CN3CCC[C@H]3c3ccc(N(C)C)cc3)o2)c([N+](=O)[O-])c1`, the pIC50 in series [3] was 4.51; in [1] it was 5.18.
`O=[N+]([O-])c1ccccc1-c1ccc(CN2CCCC2c2ccc3c(c2)OCCO3)o1` (centres undefined): in series [1], the pIC50 was 4.53.
In series [1], `COc1ccc(C2CCCN2Cc2ccc(-c3ccc([N+](=O)[O-])cc3)o2)cc1` (centres undefined) showed a negative-log IC50 (pIC50) of 4.65.
The same measure, in the same setting: to `COc1ccc(C2CCCN2Cc2ccc(-c3ccccc3C(=O)O)o2)cc1` (centres undefined) belongs 3.66.
On to `Cc1cc([N+](=O)[O-])ccc1-c1ccc(CN2CCCC2c2cccc(N(C)C)c2)o1` (centres undefined), for which the half-life at 1 µM in series [2] is 4.2 min; in [5] it was 4.7 min. In series [1], this compound gave a pIC50 of 5.21.
Regarding `O=[N+]([O-])c1ccccc1-c1ccc(CN2CCCC2c2cccc(N3CCCCC3)c2)o1` (centres undefined), the negative-log IC50 (pIC50) in series [1] is 5.15.
Same read-out and setting: to `COc1ccccc1C1CCCN1Cc1ccc(-c2ccccc2[N+](=O)[O-])o1` (centres undefined) belongs 4.63.
Same read-out and setting: to `COc1ccc(C2CCCN2Cc2ccc(-c3cccc([N+](=O)[O-])c3)o2)cc1` (centres undefined) belongs 4.45.
Take `O=[N+]([O-])c1ccccc1-c1ccc(CN2CCCC2c2ccc(N3CCCCC3)cc2)o1` (centres undefined): the results for the half-life at 1 µM in series [2] and in series [5] were 1.29 min and 1.95 min, respectively. Besides, the values for the pIC50 in [3] and in series [1] were 4.27 and 4.67, respectively.
The corresponding values for `O=[N+]([O-])c1ccccc1-c1ccc(CN2CCCC2c2cccc(N3CCCC3)c2)o1` (centres undefined) are 5.61 min, 2.27 min, 4.07 and 5.19.
Take `O=[N+]([O-])c1ccccc1-c1ccc(CN2CCCC2c2ccc(N3CCCC3)cc2)o1` (centres undefined): the half-life at 1 µM in series [2] was 2.67 min; in [5] it was 10.1 min. The pIC50 in series [3] was 4.21; in series [1], 4.89. Moreover, the Activity entry in series [6] is given as “Non-Toxic”.
As to `CN(C)c1cccc(C2CCCN2Cc2ccc(-c3ccccc3[N+](=O)[O-])o2)c1` (centres undefined), the half-life at 1 µM in series [2] stood at 0.78 min; in series [5] it was 0.57 min. Besides, the values for the pIC50 in series [3] and in [1] were 4.35 and 5.26, respectively.
`COc1cccc(C2CCCN2Cc2ccc(-c3ccccc3[N+](=O)[O-])o2)c1` (centres undefined): the pIC50 in series [1] was 4.57.
Still for that read-out and setting: to `CN(C)Cc1cccc(C2CCCN2Cc2ccc(-c3ccccc3[N+](=O)[O-])o2)c1` (centres undefined) belongs 4.27.
In the case of `COc1ccc(-c2ccc(CN3CCC[C@@H]3c3ccc(N(C)C)cc3)o2)c([N+](=O)[O-])c1`, the pIC50 in series [3] is 4.25; in series [1], 4.98.
Take `CN(C)c1ccc(C2CCCN2Cc2ccc(-c3ccc(Cl)cc3[N+](=O)[O-])o2)cc1` (centres undefined): the negative-log IC50 (pIC50) in series [1] was 4.67.
As to `Cc1cc([N+](=O)[O-])ccc1-c1ccc(CN2CCCC2c2ccc(N(C)C)cc2)o1` (centres undefined), the values for the half-life at 1 µM in series [2] and in series [5] were 3.64 min and 13.7 min, respectively. Further, the values for the negative-log IC50 (pIC50) in series [3] and in series [1] were 4.37 and 5.11, respectively. In series [4], this compound showed a t1/2 of 92.4 min.
With `CN(C)c1ccc(C2CCCN2Cc2ccc(-c3ccccc3[N+](=O)[O-])o2)cc1` (centres undefined), the half-life at 1 µM in series [2] stood at 0.95 min; in series [5] it was 2.54 min. The pIC50 in [3] was 4.48; in series [1], 4.71. In series [4], this compound came in with a t1/2 of 224 min. Also, the inhibition entry in the series with CD8-positive T cell and in the series on CD4+ve Th was “Active” throughout. Besides, the Activity result with T-cell is “Dde”; in series [6], “Non-Toxic”.
`COc1ccc(C2CCCN2Cc2ccc(-c3ccccc3F)o2)cc1` (centres undefined) showed a pIC50 in [1] of 3.94.
On the same count and under the same terms, the same measure for `COc1ccc(C2CCCN2Cc2ccc(-c3ccccc3C#N)o2)cc1` (centres undefined): 3.93.
